How the values were obtained:
[1] = molecular target: T1, human type 1 5α-reductase (Homo sapiens, UniProt P18405); assay: 5α-reductase in vitro inhibitory activity, human type 1
T1 sequence (P18405 1-259): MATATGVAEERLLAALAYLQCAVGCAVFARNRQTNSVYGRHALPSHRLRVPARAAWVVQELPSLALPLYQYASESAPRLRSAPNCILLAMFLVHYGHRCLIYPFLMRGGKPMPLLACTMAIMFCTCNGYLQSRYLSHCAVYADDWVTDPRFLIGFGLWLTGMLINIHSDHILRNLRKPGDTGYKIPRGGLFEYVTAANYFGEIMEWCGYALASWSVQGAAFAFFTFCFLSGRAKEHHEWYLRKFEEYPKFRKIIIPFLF
Procedure: (§1) Microsomes were prepared by homogenization of the tissue or cells, followed by differential centrifugation of the homogenate. […] Corresponding incubations were carried out with no test compound as a control study.
For type 2 IC50 measurements, assay components except testosterone were preincubated for 20 minutes at pH 6.0, and following the addition of 8nM testosterone the assays were allowed to proceed for 20-40 minutes. The percentage of conversion of testosterone to DHT in the presence of test compounds compared to the corresponding conversion in the control study was estimated using high pressure liquid chromatography (HPLC) with radiochemical detection.

[2] = molecular target: T2, human type 2 5α-reductase (Homo sapiens, UniProt P31213); assay: 5α-reductase in vitro inhibitory activity, human type 2
T2 sequence (P31213 1-254): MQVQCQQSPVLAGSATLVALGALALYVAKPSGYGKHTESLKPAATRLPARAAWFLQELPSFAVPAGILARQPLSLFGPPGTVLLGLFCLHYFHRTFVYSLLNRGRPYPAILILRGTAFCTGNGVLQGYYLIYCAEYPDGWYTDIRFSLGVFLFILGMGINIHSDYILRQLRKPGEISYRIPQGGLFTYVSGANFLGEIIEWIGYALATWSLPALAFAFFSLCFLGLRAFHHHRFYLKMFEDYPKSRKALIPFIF

[3] = molecular target: Rat Prostatic 5α-reductase; assay: 5α-reductase in vitro inhibitory activity, rat prostatic; details: read-out: IC50 Rat Prostatic; microsomes derived from prostate tissue from the rat
Procedure: as §1
The percentage of conversion of testosterone to DHT in the presence of test compounds compared to the corresponding conversion in the control study was estimated using high pressure liquid chromatography (HPLC) with radiochemical detection.

Structure (SMILES)	IC50 [1] [nM]	IC50 [2] [nM]	IC50 [3] [nM]
C[C@]12CC[C@H]3[C@@H](CNC4=CC(=O)CC[C@@]43C)[C@@H]1CC[C@@H]2C(=O)NCc1ccco1 [Compound 19, 17β-N-(2-Furanyl)methyl-carbamoyl-6-azaandrost-4-en-3-one]	> 100	10 to 100	10 to 100
C[C@]12CC[C@H]3[C@@H](CNC4=CC(=O)CC[C@@]43C)[C@@H]1CC[C@@H]2C(=O)NCCc1ccccn1 [Compound 20, 17β-N-2-(2-Pyridyl)ethyl-carbamoyl-6-azaandrost-4-en-3-one]	> 100	10 to 100	10 to 100
CC(C)(CO)NC(=O)[C@H]1CC[C@H]2[C@@H]3CNC4=CC(=O)CC[C@]4(C)[C@H]3CC[C@]12C [Compound 21, 17β-N-(1,1-Dimethyl)-2-hydroxyethyl-carbamoyl-6-azaandrost-4-en-3-one]	> 100	10 to 100	> 100
C[C@]12CC[C@H]3[C@@H](CNC4=CC(=O)CC[C@@]43C)[C@@H]1CC[C@@H]2C(=O)NCC(c1ccccc1)c1ccccc1 [Compound 22, 17β-N-(2,2-Diphenyl)ethyl-carbamoyl-6-azaandrost-4-en-3-one]	10 to 100	< 10	< 10
C[C@]12CC[C@H]3[C@@H](CNC4=CC(=O)CC[C@@]43C)[C@@H]1CC[C@@H]2C(=O)NN(c1ccccc1)c1ccccc1 [Compound 25, 17β-N-(2,2-Diphenyl)-hydrazidyl-6-azaandrost-4-en-3-one]	10 to 100	< 10	< 10
CC(C)CC(=O)OC[C@H]1CC[C@H]2[C@@H]3CNC4=CC(=O)CC[C@]4(C)[C@H]3CC[C@]12C [Compound 27, 17β-Hydroxymethyl-(3-methylbutyrate)-6-azaandrost-4-en-3-one]	< 10	< 10	10 to 100
C[C@]12CC[C@H]3[C@@H](CNC4=CC(=O)CC[C@@]43C)[C@@H]1CC[C@@H]2COC(=O)C(c1ccccc1)c1ccccc1 [Compound 28, 17β-Hydroxymethyl-(2,2-diphenylacetate)-6-azaandrost-4-en-3-one]	10 to 100	10 to 100	< 10
C[C@]12CC[C@H]3[C@@H](CNC4=CC(=O)CC[C@@]43C)[C@@H]1CC[C@@H]2C(=O)NCc1ccc(C(F)(F)F)cc1 [Compound 30, 17β-N-(4-Trifluoromethylphenyl)methyl-carbamoyl-6-azaandrost-4-en-3-one]	10 to 100	< 10	10 to 100
C[C@]12CC[C@H]3[C@@H](CNC4=CC(=O)CC[C@@]43C)[C@@H]1CC[C@@H]2C(=O)NCC1CCCCC1 [Compound 31, 17β-methylenecyclohexyl-carbamoyl-6-azaandrost-4-en-3-one]	10 to 100	< 10	< 10
CC(C)(Cc1ccc(F)cc1)NC(=O)[C@H]1CC[C@H]2[C@@H]3CNC4=CC(=O)CC[C@]4(C)[C@H]3CC[C@]12C [Compound 32, 17β-N-(1,1-Dimethyl)-2-(4-fluorophenyl)ethyl-carbamoyl-6-azaandrost-4-en-3-one]	10 to 100	< 10	< 10
CC(C)Oc1ccc(C(=O)[C@H]2CC[C@H]3[C@@H]4CNC5=CC(=O)CC[C@]5(C)[C@H]4CC[C@]23C)cc1 [Compound 33, 17β-(1-Oxo-1 (4-isopropoxyphenyl)methyl)-6-azaandrost-4-en-3-one]	> 100	10 to 100	10 to 100
C[C@]12CC[C@H]3[C@@H](CNC4=CC(=O)CC[C@@]43C)[C@@H]1CC[C@@H]2C(=O)NC(C1CCCCC1)C1CCCCC1 [Compound 34, 17β-N-(Dicyclohexyl)methyl-carbamoyl-6-azaandrost-4-en-3-one]	10 to 100	< 10	< 10
CC(NC(=O)[C@H]1CC[C@H]2[C@@H]3CNC4=CC(=O)CC[C@]4(C)[C@H]3CC[C@]12C)c1ccccc1 (stereo partly drawn) [Compound 35, 17β-N-(1-Phenyl)ethyl-carbamoyl-6-azaandrost-4-en-3-one]	> 100	< 10	< 10
CCCCCCCCCCc1ccc(NC(=O)[C@H]2CC[C@H]3[C@@H]4CNC5=CC(=O)CC[C@]5(C)[C@H]4CC[C@]23C)cc1 [Compound 36, 17β-N-(4-Decyl)phenyl-carbamoyl-6-azaandrost-4-en-3-one]	> 100	< 10	< 10
C[C@]12CC[C@H]3[C@@H](CNC4=CC(=O)CC[C@@]43C)[C@@H]1CC[C@@H]2COC(=O)C12CC3CC(CC(C3)C1)C2 [Compound 38, 17β-Hydroxymethyl-(1-adamantylcarboxylate)-6-azaandrost-4-en-3-one]	10 to 100	< 10	> 100
CC1(C)C2CCC(CNC(=O)[C@H]3CC[C@H]4[C@@H]5CNC6=CC(=O)CC[C@]6(C)[C@H]5CC[C@]34C)C1C2 (stereo partly drawn) [Compound 39, 17β-N-Myrantyl-carbamoyl-6-azaandrost-4-en-3-one]	10 to 100	< 10	10 to 100
Cc1cc(C)c(NC(=O)[C@H]2CC[C@H]3[C@@H]4CNC5=CC(=O)CC[C@]5(C)[C@H]4CC[C@]23C)c(C)c1 [Compound 40, 17β-N-(2,4,6-Trimethyl)phenyl-carbamoyl-6-azaandrost-4-en-3-one]	10 to 100	< 10	10 to 100
C[C@]12CC[C@H]3[C@@H](CNC4=CC(=O)CC[C@@]43C)[C@@H]1CC[C@@H]2C(=O)NCc1ccc(F)cc1F [Compound 42, 17β-N-(2,4-Difluoro)benzyl-carbamoyl-6-azaandrost-4-en-3-one]	10 to 100	< 10	< 10
C[C@]12CC[C@H]3[C@@H](CNC4=CC(=O)CC[C@@]43C)[C@@H]1CC[C@@H]2C(=O)CC(c1ccccc1)c1ccccc1 [Compound 43, 17β-(1-Oxo-3.3-diphenylpropyl)-6-azaandrost-4-en-3-one]	< 10	< 10	> 100
C[C@]12CC[C@H]3[C@@H](CNC4=CC(=O)CC[C@@]43C)[C@@H]1CC[C@@H]2C(=O)Nc1cc(C(F)(F)F)ccc1Cl [Compound 44, 17β-N-(2-Chloro-5-trifluoromethyl)-phenyl-carbamoyl-6-azaandrost-4-en-3-one]	10 to 100	< 10	> 100
CC(NC(=O)[C@H]1CC[C@H]2[C@@H]3CNC4=CC(=O)CC[C@]4(C)[C@H]3CC[C@]12C)C(c1ccccc1)c1ccccc1 (stereo partly drawn) [Compound 45, 17β-N-(2,2-Diphenyl-1-methyl)ethyl-carbamoyl-6-azaandrost-4-en-3-one]	> 100	< 10	10 to 100
Cc1cc(Br)cc(C)c1NC(=O)[C@H]1CC[C@H]2[C@@H]3CNC4=CC(=O)CC[C@]4(C)[C@H]3CC[C@]12C [Compound 46, 17β-N-(2,6-Dimethyl-4-bromo)phenyl-carbamoyl-6-azaandrost-4-en-3-one]	10 to 100	< 10	< 10
C[C@]12CC[C@H]3[C@@H](CNC4=CC(=O)CC[C@@]43C)[C@@H]1CC[C@@H]2C(=O)NC(c1ccc(Cl)cc1)c1ccc(Cl)cc1 [Compound 47]	10 to 100	< 10	< 10

— patent EP0674651B1, “SUBSTITUTED 6-AZAANDROSTENONES” (priority 1992, dated 1994)
